“Also recorded” adds a separate entry of the source.
Legend:
Format in all cases: physicochemical
[1] = Solubility in screen solvents derived from loading in solvent and dissolution; settings: organic solvent or mixture, thermodynamic from solid
From the text: They were selected based on a diverse range of properties including dielectric constants, boiling points, and H-bonding that are important to crystallization and crystal-form discovery. The values in TABLE 2 are derived from ACH-0142684 loading in solvent and dissolution. The symbol † indicates the solubility value is found in TABLE 1.

[2] = Vacuum oven drying and re-analysis by PXRD for form change
Experimental: PXRD diffractograms were acquired using either a Bruker D8 Discovery diffractometer with a HI-STAR GADDS detector or PANalytical X′Pert Pro diffractometer on Si zero-background wafers. All diffractograms were collected using Cu Kα (45 kV/40 mA) radiation and a step size of 0.02° 2θ unless noted otherwise.
A sample of Polymorph A was dried in a vacuum oven at 55° C. overnight with a small flow of nitrogen. FIG. 1 is a graph showing the results of X-ray powder diffraction analysis of pre-dried (lower trace) and post-dried (upper trace) Polymorph A sample. FIG. 2 is a graph showing the results of differential scanning calorimetry overlay of a pre-dried (lower trace) and post-dried (upper trace) Polymorph A sample. FIG. 3 is a graph showing the results of thermogravimetric analysis of the Form A polymorph.
A small amount of Polymorph B was dried in a vacuum oven at 50° C. for 16 hours and the sample was re-analyzed by PXRD to observe if there were any form changes.

[3] = Competitive ripening study between Polymorphs A and G; settings: slurry in 2-propanol, room temperature, sample isolated after 48 hours
Experimental: A competitive ripening study was conducted between Polymorphs A and G at room temperature to determine their relative stabilities. Approximately 5 mg of Polymorphs A and G were added to a 2-mL HPLC vial containing 0.5 mL of 2-propanol. The suspension was stirred at room temperature for two days. Aliquots of the slurry were filtered after 20 and 48 hours. The isolated solids were analyzed by PXRD to determine any form conversion.

[4] = Crystallization screening (temperature cycling, cooling, evaporation, vapor diffusion), form stability; settings: 48 solvents/mixtures
Experimental: Crystallization experiments were conducted in 48 solvents and aqueous mixtures using the following three crystallization modes:
Temperature-cycled ripening of API slurries between 5-40° C. for 48 hours;
Cooling of saturated solutions prepared at RT to 5° C. (24 hours);
Slow evaporation of saturated solutions at RT.In addition, 10 vapor diffusion experiments were also conducted (Table 4) at RT. These solvent systems were selected based on API solubility, and the miscibility and boiling points of solvents and anti-solvents.
All solid outputs from the screen were isolated and analyzed by FT-Raman spectroscopy and/or PXRD. The samples were then sorted into polymorphs based on Raman spectral match. Representative samples from each of the polymorphs were further analyzed by additional techniques (PXRD, DSC, TGA-IR, PLM, etc.) as appropriate and as sample quantity permitted.
Characterization data and more detailed discussion of the different crystal forms are summarized in the following sections. In TABLES 3 and 4, A, B, C, D, or E, etc. indicates the respective crystalline polymorph obtained. “Amorphous” indicates an amorphous solid was obtained, (-) indicates the experiment was not performed, and a blank space indicates no solid was obtained. The screening study led to one hydrated form (Polymorph A) and multiple solvated forms (Polymorph s B-E). […]

[5] = Solubility assessment at room temperature by solvent aliquot addition and visual inspection; settings: thermodynamic from solid
Experimental: (§1) The solubility of ACH-0142684 sodium salt was determined at room temperature using the following procedure. The input material (˜10 mg) was weighed into each of 12 vials, followed by addition of a solvent in multiple aliquots between 50μL to 10-mL at room temperature. Samples were visually inspected for complete dissolution after each solvent addition. The solubility of crystalline ACH-0142684 sodium salt is summarized in TABLE 1, which provides a solubility assessment of amorphous API in 12 solvents. The solubility of API-0142684 in water after temperature cycling between 40° C. and 5° C. for 2 days is ˜50 mg/ml.

[6] = Solubility in water after temperature cycling between 40° C. and 5° C.; settings: thermodynamic from solid, cycling between 40° C. and 5° C. for 2 days
Experimental: as §1

## COc1ccc2c(O[C@@H]3C[C@H]4C(=O)N[C@]5(C(=O)NS(=O)(=O)C6CC6)C[C@H]5/C=C\CCCCC[C@H](CC(=O)N5CCCC(F)(F)C5)C(=O)N4C3)cc(-c3nc(C(C)C)cs3)nc2c1C [ACH-0142684]
[1]; 1,4-Dioxane
  solubility: < 50 mg/mL
[1]; 1-Butanol
  solubility: < 50 mg/mL
[1]; 1-Methoxy-2-propanol
  solubility: > 80 mg/mL
[1]; 1-propanol
  solubility: < 50 mg/mL
[1]; 2-Butanone
  solubility: < 50 mg/mL
[1]; 2-Methoxyethyl ether
  solubility: < 90 mg/mL
[1]; 2-methoxyethanol
  solubility: > 93 mg/mL
[1]; 2-propanol with 20 vol % water, 2-propanol: 20 vol % Water
  solubility: < 95 mg/mL
[1]; 2-propanol: 5 vol % Water
  solubility: < 50 mg/mL
[1]; 2-propanol: 10 vol %
  solubility: < 50 mg/mL
[1]; 4-Methyl-2-pentanone
  solubility: < 50 mg/mL
[1]; Acetone: 5 vol % Water
  solubility: < 50 mg/mL
[1]; Acetone: 10 vol % Water
  solubility: < 99 mg/mL
[1]; Acetonitrile: 5 vol % Water
  solubility: < 50 mg/mL
[1]; Acetonitrile: 10 vol %
  solubility: < 50 mg/mL
[1]; Chlorobenzene
  solubility: < 50 mg/mL
[1]; Chloroform
  solubility: > 153 mg/mL
[1]; Cyclohexane
  solubility: < 50 mg/mL
[1]; Cyclohexanone
  solubility: > 87 mg/mL
[1]; DMF
  solubility: > 93 mg/mL
[1]; Dimethyl Carbonate
  solubility: < 50 mg/mL
[1]; Dioxane: 10 vol % Water
  solubility: > 93 mg/mL
[1]; EtOAc:pentane (1:1)
  solubility: < 50 mg/mL
[1]; EtOAc:pentane (1:4)
  solubility: < 50 mg/mL
[1]; EtOAc:pentane (1:10)
  solubility: < 50 mg/mL
[1]; EtOH
  solubility: < 72 mg/mL
[1]; Isopropyl acetate
  solubility: < 50 mg/mL
[1]; Isopropyl ether
  solubility: < 50 mg/mL
[1]; MeOAc
  solubility: < 50 mg/mL
[1]; Methanol: 5 vol % Water
  solubility: > 177 mg/mL
[1]; Methanol: 10 vol % Water
  solubility: > 85 mg/mL
[1]; Pentane
  solubility: < 50 mg/mL
[1]; THF: 5 vol % Water
  solubility: > 85 mg/mL
[1]; THF: 10 vol % Water
  solubility: > 107 mg/mL
[1]; acetone with 20 vol % water, Acetone: 20 vol % Water
  solubility: < 96 mg/mL
[1]; nitromethane
  solubility: < 50 mg/mL

## COc1ccc2c(O[C@@H]3C[C@H]4C(=O)N[C@]5(C(=O)[N-]S(=O)(=O)C6CC6)C[C@H]5/C=C\CCCCC[C@H](CC(=O)N5CCCC(F)(F)C5)C(=O)N4C3)cc(-c3nc(C(C)C)cs3)nc2c1C.[Na+] [Polymorph A]
[2]; vacuum oven at 55° C. overnight, small flow of nitrogen
  Form stability on drying (PXRD of dried sample): does not show any change in form or crystallinity
[3]
  Relative stability of Polymorphs A and G (PXRD of isolated solids): the more stable form at room temperature
[4]
  Form stability indicated by crystallization screen outcome: the most stable form at the crystallization conditions studied; also recorded: stable form at/around room temperature

## COc1ccc2c(O[C@@H]3C[C@H]4C(=O)N[C@]5(C(=O)[N-]S(=O)(=O)C6CC6)C[C@H]5/C=C\CCCCC[C@H](CC(=O)N5CCCC(F)(F)C5)C(=O)N4C3)cc(-c3nc(C(C)C)cs3)nc2c1C.[Na+] [ACH-0142684 sodium salt]
[5]; organic solvent or mixture, ACN
  solubility: 1 to 1.2 mg/mL
[5]; organic solvent or mixture, DCM
  solubility: 49 to 98 mg/mL
[5]; organic solvent or mixture, DMSO
  solubility: 97 to 129 mg/mL
[5]; organic solvent or mixture, EtOAc
  solubility: < 1.02 mg/mL
[5]; organic solvent or mixture, IPA
  solubility: 1.1 to 1.3 mg/mL
[5]; organic solvent or mixture, MTBE
  solubility: < 0.93 mg/mL
[5]; organic solvent or mixture, MeOH
  solubility: 92 to 123 mg/mL
[5]; organic solvent or mixture, TFE
  solubility: 100 to 133 mg/mL
[5]; organic solvent or mixture, THF
  solubility: 9.2 to 18.4 mg/mL
[5]; organic solvent or mixture, Toluene
  solubility: < 1.04 mg/mL
[5]; organic solvent or mixture, acetone
  solubility: 5.7 to 14 mg/mL
[5]; Water
  solubility: < 0.99 mg/mL
[6]
  solubility at 2 days: ~50 mg/mL

## COc1ccc2c(O[C@@H]3C[C@H]4C(=O)N[C@]5(C(=O)[N-]S(=O)(=O)C6CC6)C[C@H]5/C=C\CCCCC[C@H](CC(=O)N5CCCC(F)(F)C5)C(=O)N4C3)cc(-c3nc(C(C)C)cs3)nc2c1C.[Na+] [Polymorph B]
[2]; vacuum oven at 50° C. for 16 hours
  Form stability on drying (PXRD of dried sample): does not show any change in form but the peaks appear to be broader

From patent publication US9085607B2, “ACH-0142684 sodium salt polymorph, composition including the same, and method of manufacture thereof” (Achillion Pharmaceuticals Inc., priority 2013, dated 2015)
